Measurements published in US11753408B2, “Compounds and method for blocking transmission of malarial parasite” (The United States of America, as represented by the …, priority 2016, dated 2023).
Where two headings read alike, the source gives them in different places.

How the values were obtained:
[1] = system: Asexual parasites of P. falciparum strain 3D7; assay: In vitro drug activity on asexual parasites (SYBR Green assay); type: cell-based, Plasmodium falciparum
Procedure, shortened: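 3D7 parasites at 0.5% parasitemia and 2% hematocrit were exposed to drugs (DMSO ≤0.5%) for 72 h under standard culture conditions, in duplicate. After freeze-thaw lysis, SYBR Green I lysis buffer was added for 30 min at room temperature, and fluorescence was read at 490/520 nm.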

Solubility at pH 7.4 = type: physicochemical
[2] = system: Stage III-V gametocytes (blood stage P. falciparum parasites); assay: In vitro drug activity on gametocytes (AlamarBlue viability assay); type: cell-based, Plasmodium falciparum; settings: for EC50: read-out: Gametocyte EC50
Procedure, shortened: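 P. falciparum 3D7 stage III–V gametocytes (also HB3, Dd2), enriched by 50 mM N-acetylglucosamine and Percoll gradient, seeded at 20,000/well with compound for 72 h at 37° C, 5% CO2. AlamarBlue then added for 24 h; viability read as fluorescence (Ex 525, Em 598 nm).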

[3] = Microsomal stability (rat); type: in vitro ADME; settings: rat microsomes
PAMPA permeability = type: in vitro ADME
[4] = P. falciparum 3D7 asexual parasites, 72 h, SYBR Green
[5] = P. falciparum stage III-V gametocytes, 72 h incubation, AlamarBlue

Row | SMILES | EC50 [1, 4] [nM] | Sol @ pH 7.4 (ug/mL) (Solubility at pH 7.4) | Microsomal Stability (rat) T1/2 [3] [min] | PAMPA Permeability (×10^6 cm/s) (PAMPA permeability) | EC50 [1] [nM] | Sol @ pH 7.4 (Solubility at pH 7.4) [ug/mL] | PAMPA Permeability (PAMPA permeability) [×10⁻⁶ cm/s] | EC50 [2, 5] [nM] | EC50 [2] [nM] | Gametocyte EC50 (nM) [2, 5]
1 | Cc1cc(N2CCNCC2)c(C#N)cc1-n1c(=O)ccc2cnc3ccc(-c4ccc(Cl)cc4)cc3c21 [Compound 4] | 14.9 | <1 | 9.6 | 21 ×10^6 cm/s | – | – | – | 55 | – | –
2 | CCN1Cc2cc(-n3c(=O)ccc4cnc5ccc(-c6ccc(CN(C)C)cc6)cc5c43)ccc2C1=O [Compound 348] | 1460 | >72.0 | >30.0 | 289.4 ×10^6 cm/s | – | – | – | 2450 | – | –
3 | CS(=O)(=O)c1ccc(-n2c(=O)ccc3cnc4ccc(-c5cccc(CN)c5)cc4c32)cc1 [Compound 64] | 489 | 1.4 | >30 | <12.3 ×10^6 cm/s | – | – | – | 1050 | – | –
4 | NS(=O)(=O)c1ccc(-n2c(=O)ccc3cnc4ccc(-c5ccc(Cl)cc5)cc4c32)cc1 [Compound 40] | 14.6 | <1.0 | >30.0 | <1.0 ×10^6 cm/s | – | – | – | 51.7 | – | –
5 | CN(C)Cc1ccc(-c2ccc3ncc4ccc(=O)n(-c5ccc6c(c5)CN(C5CC5)C6=O)c4c3c2)cc1 [Compound 354] | 687 | >74.0 | >30.0 | 292.3 ×10^6 cm/s | – | – | – | 1910 | – | –
6 | Cc1ccc(C#N)cc1-n1c(=O)ccc2cnc3ccc(-c4ccc(N)nc4)cc3c21 [Compound 21] | 13.8 | 1.1 | 12.7 | 606 ×10^6 cm/s | – | – | – | 17 | – | –
7 | O=c1ccc2cnc3ccc(-c4ccc(Cl)cc4)cc3c2n1-c1ccc(S(=O)(=O)N2CCOCC2)cc1 [Compound 38] | 220 | <1.0 | 12.7 | 32.5 ×10^6 cm/s | – | – | – | 187 | – | –
8 | CN(C)Cc1ccc(-c2ccc3ncc4ccc(=O)n(-c5ccc6c(c5)CCNC6=O)c4c3c2)cc1 [Compound 342] | 130 | 31.01 | >30.00 | 12.72 ×10^6 cm/s | – | – | – | 350 | – | –
9 | CS(=O)(=O)c1ccc(-n2c(=O)ccc3cnc4ccc(-c5ccc(Cl)c(N)c5)cc4c32)cc1C(F)(F)F [Compound 45] | 77.8 | <1.0 | 8.9 | 144.4 ×10^6 cm/s | – | – | – | 209 | – | –
10 | Cc1c(C#N)cccc1-n1c(=O)ccc2cnc3ccc(-c4ccc(N)nc4)cc3c21 [Compound 24] | 5.88 | 5.7 | 19 | 547.9 ×10^6 cm/s | – | – | – | 23.4 | – | –
11 | O=C1NCc2cc(-n3c(=O)ccc4cnc5ccc(-c6ccc(CCN7CCOCC7)cc6)cc5c43)ccc21 [Compound 372] | 540 | <1 | >30 | <1 ×10^6 cm/s | – | – | – | 1050 | – | –
12 | N#Cc1cccc(-n2c(=O)ccc3cnc4ccc(-c5ccc(N)nc5)cc4c32)c1 [Compound 20] | 11.7 | <1.0 | >30.0 | 505.6 ×10^6 cm/s | – | – | – | 22.6 | – | –
13 | COc1cc(-c2ccc3ncc4ccc(=O)n(-c5ccc(S(C)(=O)=O)cc5)c4c3c2)ccc1Cl [Compound 31] | 33.5 | <1.0 | >30.0 | 40.7 ×10^6 cm/s | – | – | – | 222 | – | –
14 | CS(=O)(=O)c1ccc(-n2c(=O)ccc3cnc4ccc(-c5ccc(C=O)cc5)cc4c32)cc1 [Compound 65] | 43.1 | <1 | 2.9 | 5.4 ×10^6 cm/s | – | – | – | 461 | – | –
15 | CS(=O)(=O)c1ccc(-n2c(=O)ccc3cnc4ccc(-c5ccc(Cl)c(C(=O)O)c5)cc4c32)cc1 [Compound 43] | 43800 | >74.0 | >30.0 | <1.0 ×10^6 cm/s | – | – | – | – | – | Inactive
16 | O=C1NCc2cc(-n3c(=O)ccc4cnc5ccc(-c6ccc(CN7CCC7)cc6)cc5c43)ccc21 [Compound 378] | – | >70 | >30 | 2.3 ×10^6 cm/s | – | – | – | 1550 | – | –
17 | CS(=O)(=O)c1ccc(-n2c(=O)ccc3cnc4ccc(-c5ccc(N)nc5)cc4c32)cc1N1CCOCC1 [Compound 83] | – | 5.62 | >30.00 | 58.31 ×10^6 cm/s | – | – | – | 74.7 | – | –
18 | CS(=O)(=O)c1cccc(-n2c(=O)ccc3cnc4ccc(-c5ccc(Cl)cc5)cc4c32)c1 [Compound 56] | – | 0.01 | >30.00 | 716.98 ×10^6 cm/s | – | – | – | 1550 | – | –
19 | CS(=O)(=O)c1ccc(-n2c(=O)ccc3cnc4ccc(-c5ccc(Cl)cc5)cc4c32)cc1CN1CCOCC1 [Compound 66] | – | <1 | 1.4 | 135 ×10^6 cm/s | – | – | – | 350 | – | –
20 | Nc1ccc(-c2ccc3ncc4ccc(=O)n(-c5ccc6c(c5)C(=O)NC6=O)c4c3c2)cn1 [Compound 395] | – | 11.3 | >30 | 3.9 ×10^6 cm/s | – | – | – | 46000 | – | –
21 | O=C1NCc2cc(-n3c(=O)ccc4cnc5ccc(-c6ccc(Cl)cc6)cc5c43)ccc21 [Compound 339] | – | <1.0 | >30.0 | <1.0 ×10^6 cm/s | – | – | – | 9.19 | – | –
22 | CS(=O)(=O)c1ccc(-n2c(=O)ccc3cnc4ccc(-c5ccc(Cl)cc5)cc4c32)cc1N1CCOCC1 [Compound 58] | – | <0.10 | 13.5 | 1527.98 ×10^6 cm/s | – | – | – | 890 | – | –

Further lines, with some results ahead:

Row | EC50 [1, 4] [nM] | Sol @ pH 7.4 (ug/mL) (Solubility at pH 7.4) | Microsomal Stability (rat) T1/2 [3] [min] | PAMPA Permeability (×10^6 cm/s) (PAMPA permeability) | EC50 [1] [nM] | Sol @ pH 7.4 (Solubility at pH 7.4) [ug/mL] | PAMPA Permeability (PAMPA permeability) [×10⁻⁶ cm/s] | SMILES | EC50 [2, 5] [nM] | EC50 [2] [nM] | Gametocyte EC50 (nM) [2, 5]
23 | 60.3 | <1 | 14.5 | <1 ×10^6 cm/s | – | – | – | Cc1c(C#N)cccc1-n1c(=O)ccc2cnc3ccc(-c4ccc(Cl)cc4)cc3c21 [Compound 8] | 139 | – | –
24 | – | – | 16.9 | – | 46.7 | <1.0 | 1050 | CNC(=O)c1ccc(-n2c(=O)ccc3cnc4ccc(-c5ccc(Cl)cc5)cc4c32)cc1 [Compound 99] | – | 130 | –
25 | – | <1 | 1.7 | 1449.1 ×10^6 cm/s | – | – | – | CN(C)Cc1cc(-n2c(=O)ccc3cnc4ccc(-c5ccc(Cl)cc5)cc4c32)ccc1S(C)(=O)=O [Compound 67] | 1340 | – | –
26 | 200 | <1.0 | >30.0 | <1.0 ×10^6 cm/s | – | – | – | Cc1cc(-c2ccc3ncc4ccc(=O)n(-c5ccc(S(C)(=O)=O)cc5)c4c3c2)ccc1Cl [Compound 48] | 561 | – | –
27 | 4.76 | <1.0 | >30.0 | <11.8 ×10^6 cm/s | – | – | – | CS(=O)(=O)c1ccc(-n2c(=O)ccc3cnc4ccc(-c5ccc(N)nc5)cc4c32)cc1 [Compound 79] | 22.8 | – | –
28 | 668 | >70.0 | >30.0 | 317.6 ×10^6 cm/s | – | – | – | CN(C)Cc1ccc(-c2ccc3ncc4ccc(=O)n(-c5ccc6c(c5)CN(C)C6=O)c4c3c2)cc1 [Compound 347] | 1720 | – | –
29 | 3790 | 9.6 | 2.8 | 115.9 ×10^6 cm/s | – | – | – | CCNC(=O)c1cc(-c2ccc3ncc4ccc(=O)n(-c5ccc(S(C)(=O)=O)cc5)c4c3c2)ccc1Cl [Compound 53] | 6850 | – | –
30 | – | <1.0 | >30.0 | <1.0 ×10^6 cm/s | – | – | – | CCS(=O)(=O)c1ccc(-n2c(=O)ccc3cnc4ccc(-c5ccc(Cl)cc5)cc4c32)cc1 [Compound 27] | 108 | – | –
31 | – | 21.28 | >30.00 | 1646.44 ×10^6 cm/s | – | – | – | CN(C)Cc1cccc(-c2ccc3ncc4ccc(=O)n(-c5ccc(S(C)(=O)=O)cc5)c4c3c2)c1 [Compound 60] | 1950 | – | –
32 | – | 49.68 | 7.1 | 50.85 ×10^6 cm/s | – | – | – | CS(=O)(=O)c1cccc(-n2c(=O)ccc3cnc4ccc(-c5ccc(N)nc5)cc4c32)c1 [Compound 80] | 214 | – | –
